Values quoted from earlier work as cited in publication PMC12368482, “Antiprotozoal Activity of Highly Substituted Pyrazole and Pyrimidine Derivatives” (Chemmedchem, 2025).

Legend:
Set-up in all cases: method as in PMID 17949068
[1] = system: P. falciparum chloroquine (CQ)‐resistant strain; settings: ref [15]; read-out: IC50 against P. falciparum CQ‐resistant strain; cited from earlier work
[2] = system: Leishmania donovani; settings: ref [15]; read-out: IC50 against Leishmania donovani; cited from earlier work
[3] = system: normal myoblast L6 cells; settings: ref [15]; cited from earlier work

O=[N+]([O-])c1ccc(-n2nc(-c3ccc(Oc4ccccc4)cc3)cc2N2CCOCC2)cc1 [II]
IC50 [1]: 3.7 µM | IC50 [2]: 4.8 µM | cytotoxicity against normal myoblast L6 cells [3]: not cytotoxic
